Common to all, as to test: NCI anticancer screen, dose series, 48 h
For experiment [1], the system named is CAKI-1 renal.
Experiment [2] concerns OVCAR-5 ovarian.
For experiment [3], the system named is MALME-3M melanoma.
For experiment [4], the system named is A498 renal.
In experiment [5] the test system is PC-3 prostate.
Experiment [6] relates to A549 NSCLC.
Experiment [7] has as its system RXF 393 renal.
The test system of experiment [8] is COLO 205 colon.
The test system of experiment [9] is 786-0 renal.
In experiment [10] the test system is HCT-15 colon.

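Assay format: 96-well plates, 48-hour exposure. Here, GI50 denotes the concentration required for 50% inhibition of growth. TGI: total growth inhibition.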

The values below come from PubChem BioAssay (NCI).

For `CCCN1C(=O)/C(=c2\sc3n(c2=O)C2C(NN=3)N(CC)C(=O)N2CC)c2ccccc21` (stereo not given), the GI50 in experiment [1] is 0.445 µM; in experiment [2], 1.14 µM; in experiment [3] it was 0.612 µM; in [4] it was 0.188 µM; in experiment [5], 0.453 µM; in experiment [6], 0.854 µM. In addition, the GI50 in [7] was 0.277 µM; in experiment [8], 0.665 µM; in experiment [9] it was 0.89 µM; in [10], 0.416 µM. In addition, the TGI is 16.1 µM in experiment [1]; 24.1 µM in experiment [2]; 25.1 µM in experiment [3]; 0.77 µM in [4]; over 37.2 µM in experiment [5]; 16.5 µM in [6]. Moreover, the TGI is 3.23 µM in [7], 10.4 µM in experiment [8], 16.5 µM in [9] and over 52.4 µM in [10].

With `COc1ccc2c(c1)CCC1C2CCC2(C)C1CCC2(O)CNC(=O)CCCCC1CCSS1` (stereo not given), the GI50 in experiment [1] was 18.1 µM; in [2] it was over 100 µM; in experiment [3], over 100 µM; in experiment [4], 73.4 µM; in experiment [5] it was 5.91 µM; in experiment [6], 5.73 µM. Further, the GI50 is 11.7 µM in experiment [7], 6.14 µM in experiment [8], 17.7 µM in [9] and 3.56 µM in [10]. The TGI in [1] was 40.2 µM; in [2], over 100 µM; in [3], over 100 µM; in [4], over 100 µM; in experiment [5], over 100 µM; in experiment [6] it was over 100 µM. For the same molecule, the TGI in experiment [7] is 44 µM; in [8], over 100 µM; in experiment [9], 64 µM; in [10], over 100 µM.

Consider `NC(=O)[C@H]1CCN(c2ncnc(N)c2F)C[C@@H]1N1CCC[C@@H](Nc2cc(Cl)cc(C(F)(F)F)c2)C1=O`, for which the GI50 is 6.67 µM in [1]; 13.5 µM in [2]; 19.1 µM in experiment [3]; 3.25 µM in experiment [4]; 17.7 µM in experiment [5]; 15.8 µM in experiment [6]. In addition, the GI50 in experiment [7] is 6.01 µM; in [8], 5.24 µM; in experiment [9], 21.8 µM; in experiment [10], 15.1 µM. The TGI in [1] is 89.7 µM; in [2], 59.3 µM; in experiment [3], 42.8 µM; in [4] it was 18.7 µM; in experiment [5], over 100 µM; in experiment [6] it was over 100 µM. In addition, the TGI in [7] is 25.5 µM; in experiment [8], 34.2 µM; in experiment [9], over 100 µM; in [10], 48.2 µM.

Consider `O=C(CCN1CCCC1)Nc1ccc2c(NCc3ccc(F)cc3)c3ccccc3nc2c1`, for which the GI50 was 1.42 µM in [1]; 0.48 µM in experiment [2]; 1.11 µM in [3]; 0.733 µM in experiment [4]; 0.479 µM in experiment [5]; 0.384 µM in experiment [6]. The GI50 in [7] was 0.401 µM; in [8], 0.396 µM; in [9], 0.55 µM; in experiment [10] it was 1.53 µM. Besides, the TGI in experiment [1] was found to be 5.42 µM; in experiment [2] it was 2.01 µM; in [3], 2.4 µM; in experiment [4], 2.26 µM; in experiment [5], 1.9 µM; in experiment [6], 1.79 µM. The TGI in experiment [7] was determined as 1.61 µM; in [8], 1.65 µM; in experiment [9], 1.94 µM; in experiment [10], 4.07 µM.

Consider `CCn1c(-c2nonc2N)nc2cncc(C(=O)N3CCNCC3)c21`, for which the GI50 in experiment [1], in [2], in [3], in [4], in experiment [5] and in experiment [6] was over 25 µM each time. In addition, the GI50 in experiment [7], in experiment [8], in experiment [9] and in experiment [10] was over 25 µM throughout. The TGI in experiment [1], in experiment [2], in experiment [3], in experiment [4], in experiment [5] and in [6] was over 25 µM each time. The TGI in experiment [7], in [8], in experiment [9] and in experiment [10] was over 25 µM each time.

As for `O=C1c2ccccc2C(=O)N1CC1(C(=O)O)NCCS1(=O)=O` (stereo not given), the TGI in [1], in experiment [2], in experiment [3], in [4], in experiment [5] and in experiment [6] was over 100 µM in each case. The TGI in experiment [7], in experiment [8], in experiment [9] and in [10] was over 100 µM in each case.

With `CC(C)(O)c1ccc(N2CCN(c3nnc(Cc4ccccc4)c4ccccc34)CC2)nc1`, the GI50 in [1] is 11.3 µM; in [2], 17.2 µM; in experiment [3], 5.28 µM; in [4], 13.9 µM; in experiment [5] it was 10.7 µM; in [6], 6.98 µM. For the same molecule, the GI50 is 6.76 µM in [7], 5.41 µM in experiment [8], 14.6 µM in [9] and 8.31 µM in experiment [10]. Also, the TGI in experiment [1] is 30.9 µM; in [2] it was 38.9 µM; in [3], 17.9 µM; in experiment [4], 42.5 µM; in experiment [5] it was over 56.5 µM; in [6] it was 25.1 µM. The TGI in experiment [7] is 23.6 µM; in experiment [8] it was 16 µM; in [9], 45.7 µM; in experiment [10], 28.7 µM.
